Where a name gives a salt, the structure may show the parent alone. Bounds are passed on as bounds.

Experiment [1] has as its target T1, human EP1 receptor (Homo sapiens, UniProt P34995).
T1 sequence (P34995 1-402): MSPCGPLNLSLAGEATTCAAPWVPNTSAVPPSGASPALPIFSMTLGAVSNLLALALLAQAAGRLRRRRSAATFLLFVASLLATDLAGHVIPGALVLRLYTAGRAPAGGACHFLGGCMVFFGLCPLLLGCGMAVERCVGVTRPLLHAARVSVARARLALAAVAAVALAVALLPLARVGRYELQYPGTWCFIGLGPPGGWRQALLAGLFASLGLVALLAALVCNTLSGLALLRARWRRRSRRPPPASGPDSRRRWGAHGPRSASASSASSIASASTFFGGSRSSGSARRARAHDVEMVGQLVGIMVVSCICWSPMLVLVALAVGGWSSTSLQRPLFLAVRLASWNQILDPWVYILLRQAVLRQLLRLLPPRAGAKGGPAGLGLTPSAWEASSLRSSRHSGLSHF
Kind of experiment: Test 3: Measurement of IP1 responses by HTRF, HEK-293 cells stably expressing human EP1 receptors incubated o/n, PGE2 10 nM. Particulars: for inhibition at 10 µM: HEK293, read-out: Results of Test 3 (Functional assay), % inh; for Results of Test 3 (Functional assay), % inh: at 10 μM. It is filed as cell-based. Also on record: expressed in transfected cells. Here is the method: Test 3: Measurement of IP1 Responses by Homogeneous Time Resolved Fluorescence
IP1 measurements on HEK-293 cells that stably expressed human EP1 receptors were performed by using a system based on Homogeneous Time Resolved Fluorescense (HTRF) (Gabriel et al., 2003). This technology allows the direct measurement of IP1 in living cells. The principle of this assay is based on competition between IP1 produced by cells and IP1-d2 conjugate for the binding with monoclonal anti-IP1-cryptate conjugate. The HTRF IP1 kit from CisBio was used according to the manufacturer's directions. The experimental procedure was performed as stated below.
40,000 cells per well were added to 96-well culture plates in 40 μl of Optimem and incubated o/n at 37° C. Optimem was replaced by 40 μl of stimulation buffer (supplied by the kit) and compounds were then added in 20 μl of stimulation buffer and incubated at 37° C. for 15 minutes followed by 10 μl of PGE2 to a final concentration of 10 nM. After 90 minutes at 37° C., the reaction was stopped lysing the cells with a mixture of 15 μl of cryptate and 15 μl of IP1-d2 prepared in the lysis buffer supplied by the manufacturer. Plates were incubated for an additional hour at room temperature and read at 665 nm/620 nm using an UltraEvolution Plate reader (Tecan).
Antagonist percentage inhibition was calculated relating compounds activity to the 0% inhibition of the wells incubated with 10 nM PGE2 alone and 100% inhibition of the wells incubated with 10 nM PGE2 plus 10 μM of the reference antagonist.
Background: Time-resolved FRET reads energy transfer from a long-lived donor to a nearby acceptor.

In experiment [2] the target is T1, human EP1 receptor. Kind of experiment: Test 1: Human EP1 receptor radioligand binding assay ([3H]-PGE2, transfected HEK-293 cell membranes). Also on record: expressed in transfected cells; host or cells: HEK-293 cell membranes. Particulars: for inhibition at 10 µM: read-out: Results of Test 1 (Binding assay), % inh; for Results of Test 1 (Binding assay), % inh: at 10 μM. In short, it runs like this: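 Membranes from transfected HEK-293 cells (30 μg protein) incubated with 10 nM [3H]-PGE2 in pH 6.0 MES buffer for 60 min at 25° C., then filtered and counted by scintillation. Percent inhibition set against total binding and 10 μM PGE2 non-specific binding.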

As for `CC(C)COc1ccc(F)cc1CN1CCc2c(C(=O)O)cccc21` [Example 170], the inhibition at 10 µM at human EP1 receptor [1] and at human EP1 receptor [2] was over 75% in each case.

Regarding `CC(C)COc1ccc(Cl)cc1CN1CCCc2c(C(=O)O)cccc21` [Example 175], the inhibition at 10 µM on human EP1 receptor [1] and at human EP1 receptor [2] was over 75% in each case.

`CC(C)(F)COc1ccc(Cl)cc1CN1CCCc2c(C(=O)O)cccc21` [Example 177]: the inhibition at 10 µM at human EP1 receptor [1] and on human EP1 receptor [2] was over 75% throughout.

Regarding `O=C(O)c1cccc2c1CCCN2Cc1cc(Cl)ccc1OC1CCC1` [Example 178], the inhibition at 10 µM on human EP1 receptor [1] and on human EP1 receptor [2] was over 75% throughout.

As to `C=C(CF)COc1ccc(Cl)cc1CN1CCCc2c(C(=O)O)cccc21` [Example 182], the inhibition at 10 µM at human EP1 receptor [1] and on human EP1 receptor [2] was over 75% each time.

For `O=C(O)c1cccc2c1c(CO)nn2Cc1cc(Cl)ccc1OCc1ccc(Cl)cc1F` [Example 188, sodium 1-(5-chloro-2-((4-chloro-2-fluorobenzyl)oxy)benzyl)-3-(hydroxymethyl)-1H-indazole-4-carboxylate], the inhibition at 10 µM on human EP1 receptor [1] and at human EP1 receptor [2] was over 75% throughout.

As for `Cc1ccc(OCc2ccc(Cl)cc2F)c(CN2CCOc3c(C(=O)O)cccc32)c1` [Example 194], the inhibition at 10 µM at human EP1 receptor [1] and on human EP1 receptor [2] was over 75% each time.

For `CC(C)COc1ccc(F)cc1CN1CCOc2c(C(=O)O)cccc21` [Example 195], the inhibition at 10 µM at human EP1 receptor [1] and on human EP1 receptor [2] was over 75% each time.

As to `CC(C)COc1ccc(Cl)cc1CN1CCOc2c(C(=O)O)cccc21` [Example 196], the inhibition at 10 µM on human EP1 receptor [1] and on human EP1 receptor [2] was over 75% in each case.

Turning to `O=C(O)c1cccc2c1OCCN2Cc1cc(Cl)ccc1OC1CCC1` [Example 197], the inhibition at 10 µM on human EP1 receptor [1] and on human EP1 receptor [2] was over 75% in each case.

Consider `COCc1cn(Cc2cc(Cl)ccc2OCc2ccc(Cl)cc2F)c2cccc(C(=O)O)c12` [Example 207, Sodium 1-(5-chloro-2-(4-chloro-2-fluorobenzyloxy)benzyl)-3-(methoxymethyl)-1H-indole-4-carboxylate], for which the inhibition at 10 µM on human EP1 receptor [1] and on human EP1 receptor [2] was over 75% throughout.

In the case of `O=C(O)c1cccc2c1CC(=O)N2Cc1cc(Cl)ccc1OCc1ccc(Cl)cc1F` [Example 208, sodium 1-(5-chloro-2-(4-chloro-2-fluorobenzyloxy)benzyl)-2-oxoindoline-4-carboxylate], the inhibition at 10 µM at human EP1 receptor [1] and at human EP1 receptor [2] was over 75% each time.

On to `O=C(O)c1ccnc2c1cnn2Cc1cc(Cl)ccc1OCc1ccc(Cl)cc1F` [Example 212, sodium 1-{5-chloro-2-[(4-chloro-2-fluorobenzyl)oxy]benzyl}-1H-pyrazolo[3,4-b]pyridine-4-carboxylate], for which the inhibition at 10 µM at human EP1 receptor [1] and at human EP1 receptor [2] was over 75% each time.

Turning to `O=C(O)c1ccnc2c1CCN2Cc1cc(Cl)ccc1OCc1ccc(Cl)cc1F` [Example 216, sodium 1-{5-chloro-2-[(4-chloro-2-fluorobenzyl)oxy]benzyl}-2,3-dihydro-1H-pyrrolo[2,3-b]pyridine-4-carboxylate], the inhibition at 10 µM at human EP1 receptor [1] and at human EP1 receptor [2] was over 75% in each case.

With `O=C([O-])c1ccnc2c1CCN2Cc1cc(Cl)ccc1OCc1ccc(F)cc1F.[Na+]` [Example 217], the “Results of Test 3 (Functional assay), % inh” value at human EP1 receptor [1] was “$ (% inh > 75)”. For the same molecule, the “Results of Test 1 (Binding assay), % inh” value on human EP1 receptor [2] is listed as “# (% inh > 75)”.

For the molecule `O=C([O-])c1ccnc2c1CCN2Cc1cc(Cl)ccc1OCc1ccc(F)cc1.[Na+]` [Example 220], at human EP1 receptor [1], the “Results of Test 3 (Functional assay), % inh” value is recorded as “$ (% inh > 75)”. Moreover, the “Results of Test 1 (Binding assay), % inh” value on human EP1 receptor [2] was “# (% inh > 75)”.

On to `CC(C)(F)COc1ccc(Cl)cc1CN1CCc2c(C(=O)[O-])ccnc21.[Na+]` [Example 221], for which, at human EP1 receptor [1], the “Results of Test 3 (Functional assay), % inh” value is on record as “$ (% inh > 75)”. In addition, the “Results of Test 1 (Binding assay), % inh” value on human EP1 receptor [2] was “# (% inh > 75)”.

In the case of `O=C(O)c1cncc2c1CCCN2Cc1cc(Cl)ccc1OCc1ccc(Cl)cc1F` [Example 226, Sodium 1-{5-chloro-2-[(4-chloro-2-fluorobenzyl)oxy]benzyl}-1,2,3,4-tetrahydro-1,7-naphthyridine-5-carboxylate], the inhibition at 10 µM on human EP1 receptor [1] and at human EP1 receptor [2] was over 75% in each case.

Turning to `O=C(O)c1cncc2c1CCCN2Cc1cc(Cl)ccc1OCc1ccc(F)cc1F` [Example 227], the inhibition at 10 µM at human EP1 receptor [1] and on human EP1 receptor [2] was over 75% each time.

As to `CC(C)COc1ccc(Cl)cc1CN1CCc2c(C(=O)NS(C)(=O)=O)ccnc21` [Example 234, 1-(5-chloro-2-isobutoxybenzyl)-N-(methylsulfonyl)-2,3-dihydro-1H-pyrrolo[2,3-b]pyridine-4-carboxamide sodium salt], the inhibition at 10 µM at human EP1 receptor [1] and at human EP1 receptor [2] was over 75% each time.

For `CN(C)S(=O)(=O)NC(=O)c1cccc2c1CCCN2Cc1cc(Cl)ccc1OCc1ccc(Cl)cc1F` [Example 237, 1-{5-chloro-2-[(4-chloro-2-fluorobenzyl)oxy]benzyl}-N-[(dimethylamino)sulfonyl]-1,2,3,4-tetrahydroquinoline-5-carboxamide sodium salt], the inhibition at 10 µM at human EP1 receptor [1] was 45 to 75%; on human EP1 receptor [2], over 75%.

Take `O=C(O)c1cncc2c1CCCN2Cc1ccccc1OCc1ccc(Cl)cc1F` [Example 240]: the inhibition at 10 µM at human EP1 receptor [1] and at human EP1 receptor [2] was over 75% in each case.

Regarding `CC(C)(F)COc1ccc(Cl)cc1CN1CCCc2c(C(=O)O)cncc21` [Example 242], the inhibition at 10 µM on human EP1 receptor [1] and at human EP1 receptor [2] was over 75% throughout.

On to `O=C(O)c1cncc2c1CCCN2Cc1cc(F)ccc1OCc1ccc(F)cc1F` [Example 243], for which the inhibition at 10 µM at human EP1 receptor [1] and on human EP1 receptor [2] was over 75% each time.

As to `O=C(O)c1cncc2c1CCN2Cc1cc(Cl)ccc1OCc1ccc(Cl)cc1F` [Example 248, sodium 1-{5-chloro-2-[(4-chloro-2-fluorobenzyl)oxy]benzyl}-2,3-dihydro-1H-pyrrolo[2,3-c]pyridine-4-carboxylate], the inhibition at 10 µM on human EP1 receptor [1] and at human EP1 receptor [2] was over 75% throughout.

The values above are taken from patent US9518015B2, “EP1 receptor ligands” (LABORATORIOS DEL DR. ESTEVE, S.A., priority 2011, dated 2016).
